The values that follow come from patent US20080312306A1, “POLYMORPHS, SOLVATES, AND HYDRATE OF 5-(4'-FLUORO-2'-OXO-1',2'-DIHYDROSPIRO[CYCLOPROPANE-1,3'-INDOL]-5'-YL)-1-METHYL-1H-PYRROLE-2-CARBONITRILE” (Wyeth, priority 2007, published 2008).

Common to all, as to type: physicochemical
Series [1] in a line: Solid-form stability (thermodynamic stability, slurrying in solvent, water, micronization, vacuum). The text has this:
(§1) The inventors found several advantages of these new forms of 5-(4′-fluoro-2′-oxo-1′,2′-dihydrospiro[cyclopropane-1,3′-indol]-5′-yl)-1-methyl-1H-pyrrole-2-carbonitrile. […] In yet a further embodiment, samples of the hydrate of 5-(4′-fluoro-2′-oxo-1′,2′-dihydrospiro[cyclopropane-1,3′-indol]-5′-yl)-1-methyl-1H-pyrrole-2-carbonitrile were hygroscopic.
The hydrate of 5-(4′-fluoro-2′-oxo-1′,2′-dihydrospiro[cyclopropane-1,3′-indol]-5′-yl)-1-methyl-1H-pyrrole-2-carbonitrile is also stable under a variety of conditions. In one example, the hydrate is stable in water. In another example, the hydrate is stable under conditions of micronization. In a further example, the hydrate is stable under a vacuum for a period of at least about 48 hours.

The nature of series [2]: Hygroscopicity / water content by dynamic vapor sorption (DVS).
From the text: as §1
The hydrate has a different structure of the crystal lattice of 5-(4′-fluoro-2′-oxo-1′,2′-dihydrospiro[cyclopropane-1,3′-indol]-5′-yl)-1-methyl-1H-pyrrole-2-carbonitrile from the Form I described in the art as determined by XRD and DSC. Specifically, the hydrate contains water in the crystal lattice. Specifically, as evidenced by dynamic vapor sorption (DVS), the hydrate contains about 2.5% to about 5% water. In one embodiment, the hydrate contains about 2.5% water at 0% relative humidity (RH).

Series [3] is described as follows: Relative solubility of the crystallographic forms.
From the text: as §1

With `Cn1c(C#N)ccc1-c1ccc2c(c1F)C1(CC1)C(=O)N2` [hydrate, 5-(4′-fluoro-2′-oxo-1′,2′-dihydrospiro[cyclopropane-1,3′-indol]-5′-yl)-1-methyl-1H-pyrrole-2-carbonitrile], the stability entry in series [1] (in water) and in series [1] (under conditions of micronization) was “stable” throughout. The “period of stability under a vacuum” value in series [1] (under a vacuum) is recorded as “at least 48 hours”. The hygroscopicity result in series [2] is “hygroscopic”. In addition, the “water content (DVS)” value in series [2] (at 0% relative humidity (RH)) is given as “about 2.5%”; in series [2] (at 100% RH) it was “about 4.75%”.

Take `Cn1c(C#N)ccc1-c1ccc2c(c1F)C1(CC1)C(=O)N2` [polymorph Form II, 5-(4′-fluoro-2′-oxo-1′,2′-dihydrospiro[cyclopropane-1,3′-indol]-5′-yl)-1-methyl-1H-pyrrole-2-carbonitrile]: the thermodynamic stability result in series [1] (compared with polymorph Form I) is reported as “more thermodynamically stable”. Besides, the “conversion to other polymorphs” value in series [1] (if slurried in a solvent) is recorded as “does not convert to other polymorphs”. Besides, the hygroscopicity result in series [2] is reported as “not hygroscopic”.

As to `Cn1c(C#N)ccc1-c1ccc2c(c1F)C1(CC1)C(=O)N2` [polymorph Form III, 5-(4′-fluoro-2′-oxo-1′,2′-dihydrospiro[cyclopropane-1,3′-indol]-5′-yl)-1-methyl-1H-pyrrole-2-carbonitrile], the solubility result is “more soluble than other crystallographic forms” in series [3] (compared with other crystallographic forms) and “more soluble than polymorph Form II” in series [3] (compared with polymorph Form II).
